Results published in patent publication US9963473B2, “Stabilized form of tetrofosmin and its use” (priority 2014, dated 2018).

Legend:
[1] = Hygroscopicity (open vial, change of weight); format: physicochemical
Excerpt: An open vial of Tetrofosmin x 2 HBF4 was stored at room temperature, normal atmosphere and 50% humidity.

[2] = Storage stability of Tetrofosmin x 2 HBF4 (1H and 31P NMR spectra); format: physicochemical
Method: Tetrofosmin x 2 HBF4 was stored at room temperature without protective gas (e. g. argon or nitrogen). In accordance to example 1, the ^1H and ^31P spectra were unchanged after 12 months.
Moreover, Tetrofosmin x 2 HBF4 was heated in a normal atmosphere (with oxygen) at 50° C. for 6 hours.

| Compound | change of weight (hygroscopicity) ([1]; open vial, room temperature, normal atmosphere, 50% humidity, after 72 h) | 1H and 31P spectra after heating ([2]; normal atmosphere (with oxygen), 50° C. for 6 hours) | 1H and 31P spectra after storage ([2]; room temperature, without protective gas, after 12 months) | physical nature / hygroscopicity ([1]; own experiments of the inventors) |
| --- | --- | --- | --- | --- |
| Tetrofosmin x 2 HBF4 | no change of weight | no sign of degradation | unchanged | – |
| CCOCCP(CCOCC)CCP(CCOCC)CCOCC.Cl [Tetrofosmin hydrochloride, reference compound] | – | – | – | oily and hygrospcopic |
